# Reference: US20220119794A1, “CHEMICALLY PROGRAMMED NEUTROPHILS AND USES THEREOF” (VIRGINIA POLYTECHNIC INSTITUTE AND STATE UNIVERSITY, priority 2018, published 2022)
# Tests used:
# ApoE−/− mice = assay: Subclinical low dose LPS injection in ApoE−/− mice: atherosclerotic lesions, circulating mediators; format: in vivo; conditions: for lesional oxCAMKII levels: low dose LPS vs PBS
# Method: (§1) Experimental animals and LPS injection. Male ApoE−/− mice (6 to 8-week old) on the C57 BL/6 background were purchased from the Jackson Laboratory and fed with regular diet or High Fat Diet. Either PBS or subclinical dose LPS (5 ng per kg body weight) was intraperitoneally injected every 3 days for 1 month. Then, the mice were sacrificed and tissues were harvested for further analyses. All animal procedures were in accordance with the US National Institutes of Health Guide for the Care and Use of Laboratory Animals and approved by the Intuitional Animal Care and Use Committee of Virginia Tech.
# Analyses of atherosclerotic lesions. Histological analyses were performed on fresh-frozen and optimal cutting temperature (OCT) compound-embedded proximal aortic sections ([…]). Slides were fixed in 4% neutral buffered formalin for 5 min, followed by H&E or Oil Red O staining. Collagen staining was performed using the Picrosirius Red Stain Kit (Poly-Sciences) according to the manufacturer's instructions. The samples were observed under a light microscope. The percentages of total lesion area, lipid deposition, and collagen composition were calculated. For immunofluorescence staining, proximal aortic sections were fixed with 4% neutral buffered formalin for 5 min, permeabilized with 0.1% saponins, and blocked with 10% normal goat serum (Jackson ImmunoResearch) for 1 hour. To detect lesional neutrophils, the samples were stained with Alexa Fluor 647-conjugated anti-Ly6G antibody (1:50 dilution; BioLegend, no. 127610). To detect lesional macrophages, the samples were costained with eFluor 660-conjugated anti-CD68 (1:100 dilution; Thermo Fisher Scientific, no. 50-0681-82) and rabbit anti-SR-A (1:100 dilution; Thermo Fisher Scientific, no. PA5-22956) antibodies, followed by staining with DyLight 488-conjugated goat anti-rabbit immunoglobulin G (IgG) (1:100 dilution; Thermo Fisher Scientific, no. 35552) in the dark at room tem-perature for 1 hour. To detect oxCAMKII levels, the samples were stained with rabbit anti-oxCaMKII antibody (1:100 dilution; Millipore, no. 07-1387) at 4° C. overnight and then with DyLight 488-conjugated goat anti-rabbit IgG (1:100 dilution; Thermo Fisher Scientific, no. 35552) in the dark at room temperature for 1 hour. 4′,6-Diamidino-2-phenylindole was used to stain nucleus. The samples were observed under a confocal microscope.
# (§2) ELISA and determination of plasma lipids. For in vivo analyses, plasma was collected from the mice at time of sacrificing. For in vitro analyses, purified BM neutrophils were cultured in complete RPMI medium with G-CSF (100 ng/ml) in the presence of PBS, subclinical dose LPS (100 pg/ml), oxLDL (10 μg/ml) or 4-PBA (1 mM), and supernatant was collected after 2 d. ELISA kit of MPO was purchased from ThermoFisher, and ELISA kits of MMP9, LTB4 and TGF-β1 were purchased from R&D Systems. Cholesterol quantitation kit was purchased from Sigma-Aldrich, and triglyceride quantification kit was purchased from BioVision.
# [1] = system: Bone marrow (BM) neutrophils; assay: In vitro neutrophil priming, surface phenotype by FACS; format: cell-based, C57 BL/6 mice; conditions: LPS 100 pg/ml with G-CSF, vs G-CSF alone
# Method: (§3) In vitro neutrophil priming and FACS analysis. Bone marrow (BM) neutrophils were isolated from C57 BL/6 mice and cultured in complete RPMI medium containing 10% fetal bovine serum, 2 mM L-glutamine, 1% penicillin/streptomycin in the presence of G-CSF (100 ng/ml). PBS, subclinical dose LPS (100 pg/ml), oxLDL (10 μg/ml) or 4-PBA (1 mM) was added to cell cultures. After 2 days, the cells were harvested and stained with anti-Ly6G (BioLegend, #127606, 127610 or 127618, 1:200 dilution), anti-CD11b (BioLegend, #101206, 1:200 dilution), anti-CD62L (BioLegend, #104407, 1:200 dilution), anti-Dectin1 (BioLegend, #144305, 1:200 dilution), anti-LLRC32 (BioLegend, #142904, 1:200 dilution) and anti-FPN (Novus, #NBP1-21502, 1:200 dilution) antibodies. In some experiments, the cells were fixed and permeabilized using transcription factor phospho buffer set (BD Biosciences), and then stained with primary anti-p-STAT1 (Cell Signaling, #8009S, 1:50 dilution), anti-ATF4 (Proteintech, #10835-1-AP, 1:50 dilution), and anti-KLF2 (Novus, #NBP2-61812, 1:100 dilution) antibodies followed by staining with Alexa Fluor 488 conjugated goat anti-rabbit IgG (Abcam, #ab150077, 1:2000 dilution). Surface phenotype and transcription factor phosphorylation of Ly6G+ neutrophils were analyzed by FACSCanto II (BD Biosciences). For intracellular ROS detection, 5 μM CellROX Green Reagent (ThermoFisher) was added to neutrophil cultures 30 min before harvesting, and cells were analyzed by FACSCanto II (BD Biosciences). The data were processed by Flow Jo (Tree Star).
# [2] = system: oxCaMKII and 5-LOX in BM neutrophils; assay: Immunoblotting of oxCaMKII and 5-LOX in neutrophils; format: cell-based, C57 BL/6 mice; conditions: LPS 100 pg/ml, vs PBS
# Method: Immunoblotting. Purified BM neutrophils were cultured in complete RPMI medium with G-CSF (100 ng/ml) in the presence of PBS, subclinical dose LPS (100 pg/ml), oxLDL (10 μg/ml) or 4-PBA (1 mM), and total cell lysate was extracted on day 2. Protein samples were separated with SDS-PAGE and transferred to PVDF membranes, which were probed with anti-oxCaMKII (Millipore, #07-1387, 1:500 dilution), anti-5 LOX (Cell Signaling, #3289S, 1:500 dilution), and anti-β-actin (Santa Cruz, #sc-47778, 1:1000 dilution) primary antibodies followed by horseradish peroxidase-conjugated anti-rabbit IgG (Cell Signaling, #7074S, 1:1000 dilution) or anti-mouse IgG (Cell Signaling, #7076S, 1:1000 dilution) secondary antibodies. Images were developed by a chemiluminescence ECL detection kit (ThermoFisher).
# BM neutrophils [3] = assay: ELISA of MMP9, LTB4, MPO in neutrophil culture supernatant; format: cell-based, C57 BL/6 mice; conditions: LPS 100 pg/ml with G-CSF, vs G-CSF alone
# Method: as §2
# [4] = system: p-STAT1, ATF4, KLF2 in BM neutrophils; assay: p-STAT1, ATF4 and KLF2 levels in neutrophils by flow cytometry; format: cell-based, C57 BL/6 mice; conditions: LPS 100 pg/ml, vs PBS
# Method: as §3
# Ly6G+ neutrophils = assay: Analyses of neutrophil phenotype in vivo by flow cytometry; set-up: species or system mice
# Method: as §1
# Analyses of neutrophil phenotype in vivo. Peripheral blood cells, bone marrow (BM) cells and splenocytes were harvested from the mice treated as described above. Cells were stained with anti-Ly6G (BioLegend, #127618, 1:200 dilution), anti-CD11b (BioLegend, #101206, 1:200 dilution), anti-CD62L (BioLegend, #104407, 1:200 dilution), anti-Dectin1 (BioLegend, #144305, 1:200 dilution), anti-LLRC32 (BioLegend, #142904, 1:200 dilution) and anti-FPN (Novus, #NBP1-21502, 1:200 dilution) antibodies. The surface phenotype of Ly6G+ neutrophils was analyzed by FACSCanto II (BD Biosciences). The data were processed by Flow Jo (Tree Star).
# BM neutrophils [5] = assay: Lysosome-peroxisome fusion by confocal microscopy; format: cell-based, C57 BL/6 mice; conditions: LPS 100 pg/ml, 2 d, vs PBS
# Method: Confocal Microscopy. Purified BM neutrophils were cultured in complete RPMI medium with G-CSF (100 ng/ml) in the presence of PBS, subclinical dose LPS (100 pg/ml), or 4-PBA (1 mM) for 2 d. To determine lysosome-peroxisome fusion, the cells were fixed with 4% PFA, deposited on slides through cytospin, and permeabilized with 0.2% Trinton X-100. The cells were blocked and stained with primary rabbit anti-mouse PMP70 antibody (1:1000) supplied in SelectFX® Alexa Fluor® 488 Peroxisome Labeling Kit (ThermoFisher, #S34201), followed by staining with Alexa Fluor 488-goat anti-rabbit secondary antibody (1:1000) supplied in the kit. After extensive washing with PBS, the cells were then stained with Cy3-anti-LAMP1 antibody (Abcam, #Ab67283, 1:1000) and observed under a confocal microscope.
# BM neutrophils [6] = assay: Real-time RT-PCR of miR-24 and miR-126 in neutrophil cultures; format: cell-based, C57 BL/6 mice; conditions: LPS 100 pg/ml, 2 d, vs PBS
# Method: Real-Time RT-PCR for detecting of miRNAs. For in vivo analyses, plasma was collected from the mice at time of sacrificing. Circulating miRNAs were isolated with miRNeasy Serum/Plasma kit (Qiagen). For in vitro analyses, purified BM neutrophils were cultured in complete RPMI medium with G-CSF (100 ng/ml) in the presence of PBS, subclinical dose LPS (100 pg/ml), or 4-PBA (1 mM), and miRNAs were isolated with miRNeasy mini kit (Qiagen) after 2 d. TaqMan miRNA Assay kits for detection of U6, miR-16, miR-24, and miR-126 were purchased from ThermoFisher. Real-time RT-PCR was performed following the manual. U6 expression was used as the internal control for miRNA expressions in neutrophil cultures, and miR-16 expression was used as the internal control for plasma miRNA expressions.
# BM neutrophils [7] = assay: Intracellular ROS detection with CellROX; format: cell-based, C57 BL/6 mice; conditions: LPS 100 pg/ml, vs PBS
# Method: as §3, with “In some experiments, the cells were fixed and permeabilized using transcription factor phospho buffer set (BD Biosciences), and then stained with primary anti-p-STAT1 (Cell Signaling, #8009S, 1:50 dilution), anti-ATF4 (Proteintech, #10835-1-AP, 1:50 dilution), and anti-KLF2 (Novus, #NBP2-61812, 1:100 dilution) antibodies followed by staining with Alexa Fluor 488 conjugated goat anti-rabbit IgG (Abcam, #ab150077, 1:2000 dilution).” left out, “The data were processed by Flow Jo (Tree Star).” left out
# BM neutrophils [8] = assay: Surface phenotype of neutrophils before transfer, polarization for 24 h; format: cell-based, mice; conditions: polarized for 24 hours, vs PBS
# Method: Bone marrow neutrophils were purified and treated with PBS, super-low-dose LPS (100 pg/ml) or 4-PBA (1 mM) for 24 h (FIGS. 16A-16B) and 48 h (FIGS. 16C-16D). The cells were stained with Annexin-V and PI, and the viability (percentage of Annexin-V-/PI-population) was determined by flow cytometry. (FIG. 16E) Surface phenotype of neutrophils was analyzed by flow cytometry after polarization for 24 h. Data are representative of three independent experiments, and error bars represent means±S.E.M. *P<0.05, **P<0.01 and ***P<0.001 as compared with PBS group; one-way ANOVA. (n=5 for each group).
# Adoptive transfer of in vitro neutrophils. Bone marrow (BM) cells were isolated from ApoE−/− mice and BM neutrophils (Ly6G+ population) were purified by FACS sorting with >99.5% purity. The cells were cultured in complete RPMI with G-CSF (100 ng/ml) in the presence of subclinical dose LPS (100 pg/ml) or 4-PBA (1 mM) for 24 h. Cells were washed three times with PBS and suspended in PBS for injection. HFD-fed ApoE−/− mice were transfused with 2×10^6 neutrophils in 200 μl PBS once weekly through intravenous injection for 4 weeks. One week after the last cell transfer, mice were sacrificed and tissues were harvested for subsequent analyses.
# mice = mice repeatedly injected with 1.5 mg/kg LPS; cited from earlier work
# [9] = HFD-fed ApoE−/− mice, LPS 5 ng/kg body weight for 4 weeks, vs PBS
# [10] = LPS-injected vs PBS-injected mice
# [11] = LPS-injected vs PBS-injected mice, blood, spleen, bone marrow
substance,measurement,setting,value
lipopolysaccharide [LPS],atherosclerotic plaque size,ApoE−/− mice; [9],significantly larger
same,circulating MPO,ApoE−/− mice; [9],remarkable elevation
same,circulating levels of TGFβ,ApoE−/− mice; [9],significantly reduced
same,collagen content within the plaque,ApoE−/− mice; [9],significantly reduced
same,plasma LTB4 level,ApoE−/− mice; [9],significant elevation
same,plasma MMP9 level,ApoE−/− mice; [9],significant elevation
same,lesional oxCAMKII levels,ApoE−/− mice; HFD-fed ApoE−/− mice,significantly elevated
same,lesional oxCAMKII levels,ApoE−/− mice; RD-fed ApoE−/− mice,significantly elevated
same,surface CD11b,[1],Significantly elevated levels
same,surface CD62L,[1],significantly reduced levels
same,surface Dectin-1,[1],Significantly elevated levels
same,surface FPN,[1],significantly reduced levels
same,surface LRRC32,[1],significantly reduced levels
same,5-LOX level,[2],increased levels
same,oxCAMKII level,[2],increased levels
same,LTB4 in supernatant,BM neutrophils [3],Significantly higher levels
same,MMP9 in supernatant,BM neutrophils [3],Significantly higher levels
same,MPO in supernatant,BM neutrophils [3],Significantly higher levels
same,cellular level of ATF4,[4],significantly reduced
same,cellular level of KLF2,[4],significantly reduced
same,p-STAT1 level,[4],significantly elevated levels
same,neutrophil surface level of FPN,Ly6G+ neutrophils; [10],significantly reduced
same,neutrophil surface level of LRRC32,Ly6G+ neutrophils; [10],significantly reduced
same,neutrophil surface CD11b,Ly6G+ neutrophils; [11],significantly elevated
same,neutrophil surface Dectin1,Ly6G+ neutrophils; [11],significantly elevated
same,neutrophil surface-attached CD62L,Ly6G+ neutrophils; [11],significant reduction
same,"percentages of neutrophils in blood, spleens and atherosclerotic plaques",Ly6G+ neutrophils; mice chronically injected with LPS vs PBS,higher percentages
same,fusion between peroxisome and lysosome,BM neutrophils [5],disruption of proper fusion
same,miR-24 expression,BM neutrophils [6],induced
same,miR-126 expression,BM neutrophils [6],potently suppressed
same,intracellular ROS level,BM neutrophils [7],significantly higher levels
same,CD11b expression,BM neutrophils [8],elevated expressions
same,CD62L expression,BM neutrophils [8],reduced expressions
same,Dectin-1 expression,BM neutrophils [8],elevated expressions
same,FPN expression,BM neutrophils [8],reduced expressions
same,LRRC32 expression,BM neutrophils [8],reduced expressions
same,necrotic cores,mice,enlarged
same,numbers of circulating neutrophils,mice,elevated numbers
same,plaque collagen content,mice,reduced
